Results: patent publication US7960133B2, “Methods of diagnosing leiomyoma by measuring catechol-O-methyltransferase” (The Board of Regents of the University of Texas System, priority 2003, dated 2011)

How the values were obtained:
Assay type in all cases: cell-based, rat
[1] = test system: ELT3 cells; experiment: ELT3 cell proliferation assay (Hoechst 33258 DNA quantitation); conditions: for reduction in cell proliferation compared to the untreated control / cell proliferation increase from the control: estrogen-free
Method: The Eker rat tumor-derived ELT-3 uterine leiomyoma cells were grown in DMEM medium supplemented with 10% fetal bovine serum and 1% antibiotics (containing 100 U/ml penicillin and 100 μg/ml streptomycin. The cells were maintained in the 100 mm tissue culture dishes at 37° C. air with 5% CO2 and 95% humidity. When experiments required the addition of exogenous compounds, cells were weaned by culturing for 48 h in phenol red-free medium containing 10% Charcoal-stripped fetal calf serum. For proliferation assays, cells were plated onto 24-well plates in DMEM at a density of 4000 cells/well. The cells allowed to attach overnight and then treated with E2 (10^−6 to 10^−10 M) without COMT-inhibitor or with 10 μM of COMT-inhibitor, 2-OHE2 (10^−5 to 10^−10 M) without COMT-I, or with 10 μM COMT-I, 2-OHE2, or 2-MeOHE2 (10^−5 to 10^−10 M). Control cells were treated with medium containing 10 μl of absolute ethanol. After 48 hours, the cells were harvested for the proliferation assay. For western blot analysis, the cells were seeded in 100 mm plates at final density of 2×10^6 cells/plate. […] Cells were harvested 48 hours after treatment and cell lysates were used for western blotting. A fluorometric assay, implementing Hoechst 33258 (bisbenzimide), was used for DNA quantitation. ELT3 cells (5×10^3 cells/well) were plated (described above). The cells were allowed to attach overnight at 37° C., and then the media were replaced with media containing the appropriate treatment. Control cells were treated with a 1:1000 dilution of absolute ethanol. The cells were incubated with the treatments for 48 hours, followed by cell lysis and DNA content determination using Hoechst dye solution (10 μl/100 ml distilled H2O). Fluorescence was measured (DyNA Quant 200; Hoefer Pharmacia Biotech) after excitation at 365 nm and fluorescence at 458 nm. Calf thymus DNA was used as a standard to determine DNA concentration.

[2] = test system: estrogen response elements-luciferase reporter (AdERE-Luc) in ELT3 cells; experiment: AdERE-Luc reporter luciferase activity in ELT3 cells; conditions: for luciferase activity reduction compared to E2 (10^−8 M) alone: plus E2 10^−8 M
Text: Transfection of ELT3 cells with recombinant ERE-Luciferase adenovirus vector was achieved by maintaining ELT 3 cells as described above. For infection with estrogen response elements-luciferase reporter adenoviral vector (Ad ERE-Luc), the cells were allowed to grow to 60-70% confluence and then infected with Ad ERE-Luc vector at multiplicity of infection (MOI) of 100 plaque-forming units (PFU)/cell for two hours in infection medium containing 2% FCS and 1% penicillin/streptomycin. Then, the infection media were removed and replaced with regular media. The transduction efficiency of the adenoviral vectors in ELT3 cells was tested using Ad LacZ vector. β-Galactosidase expression was detected in 95-100% of ELT3 cells at 48 h after infection with Ad LacZ at a 100 PFU. Therefore, subsequent experiments were performed using similar amounts (100 PFU/cell) of recombinant Ad ERE-Luc vector.
ELT3 cells transfected with AdERE-Luc were treated with E2 and with or without COMT-I or with different concentrations of 2-OHE2 (10^−10 to 10^−6 M) with or with out COMT-I (10 μM). After 48 h incubation with chemicals, cells were harvested with 100 μl of cell lysis buffer (Promega). Luciferase activity was determined using Luciferase Assay Kit (Promega) according to the manufacturer's instructions.

[3] = test system: VEGF; experiment: Western blot of VEGF protein expression in ELT3 cells; conditions: 48 h, maximal inhibition at 10 μM
Method: (§1) The Eker rat tumor-derived ELT-3 uterine leiomyoma cells were grown in DMEM medium supplemented with 10% fetal bovine serum and 1% antibiotics (containing 100 U/ml penicillin and 100 μg/ml streptomycin. The cells were maintained in the 100 mm tissue culture dishes at 37° C. air with 5% CO2 and 95% humidity. When experiments required the addition of exogenous compounds, cells were weaned by culturing for 48 h in phenol red-free medium containing 10% Charcoal-stripped fetal calf serum. For proliferation assays, cells were plated onto 24-well plates in DMEM at a density of 4000 cells/well. The cells allowed to attach overnight and then treated with E2 (10^−6 to 10^−10 M) without COMT-inhibitor or with 10 μM of COMT-inhibitor, 2-OHE2 (10^−5 to 10^−10 M) without COMT-I, or with 10 μM COMT-I, 2-OHE2, or 2-MeOHE2 (10^−5 to 10^−10 M). Control cells were treated with medium containing 10 μl of absolute ethanol. […]
(§2) Immunoreactive proteins corresponding to VEGF, Cyclin D, Bcl-2, Bax, and β-actin were identified from total protein by western immunoblotting using specific monoclonal antibodies. […] After a 10-min spin at 10,000×g, the supernatant containing the total cell lysates were quantified using BCA Protein Assay Reagent (Pierce, Rockford, Ill.). […] The expression level of target proteins was quantitated densitometrically and normalized using β-actin expression.

[4] = test system: cyclin D1; experiment: Western blot of cyclin D1 protein expression in ELT3 cells; conditions: 48 h, maximal inhibition at 10 μM
Method: as §1, §2

[5] = test system: Bcl2; experiment: Western blot of Bcl2 protein expression in ELT3 cells; conditions: 48 h, maximal inhibition at 10 μM
Method: as §1, §2

[6] = test system: Bax; experiment: Western blot of Bax protein expression in ELT3 cells; conditions: 48 h
Method: as §1, §2

[7] = COMT inhibitor 10^−5 M co-treatment, P<0.05

C[C@]12CC[C@@H]3c4cc(O)c(O)cc4CC[C@H]3[C@@H]1CC[C@@H]2O [2-OHE2, 2-Hydroxyestradiol]
reduction in cell proliferation compared to the untreated control ([1]; 2-OHE2 10^−6 M): 21%
reduction in cell proliferation compared to the untreated control ([1]; 2-OHE2 10^−7 M): 16%
cell proliferation increase ([1]; 2-OHE2 10^−8 M in the presence of E2 (10^−8 M)): 33%
cell proliferation increase from the control ([1]; 2-OHE2 10^−8 M): 61%
cell proliferation increase ([1]; 2-OHE2 10^−9 M in the presence of E2 (10^−8 M)): 24%
cell proliferation increase from the control ([1]; 2-OHE2 10^−9 M): 54%
cell proliferation increase ([1]; 2-OHE2 10^−10 M in the presence of E2 (10^−8 M)): 10%
cell proliferation increase from the control ([1]; 2-OHE2 10^−10 M): 19%
luciferase activity reduction compared to E2 (10^−8 M) alone ([2]; 2-OHE2 10^−6 M): 39%
luciferase activity reduction compared to E2 (10^−8 M) alone ([2]; 2-OHE2 10^−7 M): 32%
luciferase activity reduction compared to E2 (10^−8 M) alone ([2]; 2-OHE2 10^−8 M): 32%
luciferase activity reduction compared to E2 (10^−8 M) alone ([2]; 2-OHE2 10^−10 to 10^−9 M): 30%
AdERE-Luc activity ([2]; 2-OHE2, E2-free environment, concentration dependent): up-regulated

COc1cc2c(cc1O)CC[C@@H]1[C@@H]2CC[C@]2(C)[C@@H](O)CC[C@@H]12 [2-MeOHE2, 2-Methoxyestradiol]
cell proliferation reduction compared to the corresponding control ([1]; 2-MeOHE2 5×10^−7 M): 30%
cell proliferation increase from the untreated control ([1]; 2-MeOHE2 5×10^−8 M): 31%
cell proliferation reduction compared to the corresponding control ([1]; 2-MeOHE2 10^−5 M): 65%
cell proliferation reduction compared to the corresponding control ([1]; 2-MeOHE2 10^−6 M): 51%
cell proliferation reduction compared to the corresponding control ([1]; 2-MeOHE2 10^−7 M): 16%
cell proliferation increase from the untreated control ([1]; 2-MeOHE2 10^−8 M): 24%
cell proliferation increase from the untreated control ([1]; 2-MeOHE2 10^−9 M): 20%
cell proliferation increase from the untreated control ([1]; 2-MeOHE2 10^−10 M): 15%
VEGF protein expression [3]: concentration-dependent inhibition
cyclin D1 protein expression [4]: concentration-dependent inhibition
Bcl2 protein expression [5]: concentration-dependent inhibition
Bax protein expression [6]: gradient increase

C[C@]12CC[C@@H]3c4ccc(O)cc4CC[C@H]3[C@@H]1CC[C@@H]2O [E2, β-Estradiol]
concentration of maximum effect on ELT3 proliferation ([1]; E2 alone, 48 h): 10^−8 M
maximum up-regulation of AdERE-Luciferase ([2]; E2 10^−8 M): 6 fold

O=C(c1cc(O)c(O)c([N+](=O)[O-])c1)c1ccccc1F [COMT inhibitor, R0 41-0960]
effect on the antiproliferative effect of high dose 2-OHE2 [1, 7]: augmented
effect on the proliferative effect of low dose 2-OHE2 [1, 7]: consistently antagonized
effect on E2-induced cell proliferation ([1]; COMT inhibitor 10^−5 M with E2 10^−10 to 10^−6 M, P<0.05 at all estrogen concentrations): consistently inhibited
effect on E2-induced AdERE-luciferase at higher E2 concentrations ([2]; COMT inhibitor 10^−5 M, E2 10^-6 and 10^-5 M, P=0.056 and P=0.17): less pronounced
AdERE-luciferase compared to treatment with E2 alone ([2]; COMT inhibitor 10^−5 M, E2 10^-10 to 10^-7 M, P<0.05): significant down regulation
